The text below walks through data of US20230023070A1, “Therapy for the Treatment of Cancer” (Celegene Corporation, priority 2019, published 2023).

One assay relates to KMS-12BM cells. The experiment in a line: Apoptosis by flow cytometry, Annexin-V and ToPro3 staining, after proteasome inhibitor pulse. In kind it is cell-based. Particulars: then 3 days treatment, AnnV+/ToPro3+; for apoptosis / cell killing in combination with bortezomib: 1 hour pulse with bortezomib; for apoptosis / cell killing in combination with carfilzomib: 1 hour pulse with carfilzomib. The protocol:
Apoptosis was measured in KMS-12BM cells by flow cytometry using Annexin-V (AnnV+; x-axis) and ToPro3+ (y-axis) staining after either vehicle (DMSO), pomalidomide (POM) or Compound A-S treatment over 3 days following 1 hour pulse treatment with DMSO, Bortezomib (BORT) or Carfilzomib (CFZ) at indicated concentrations.
For orientation: Flow cytometry measures light scatter and fluorescence of single cells or particles in a stream.

For another assay, the system named is MM1.S cells. The experiment in a line: Anti-proliferative activity by 3H-thymidine incorporation, combination with bortezomib. In kind it is cell-based. Particulars: 3 days, bortezomib 62.5 and 125.0 pM, pomalidomide 0.001-1.0 μM or Compound A-S 0.1-10.0 nM. The protocol: The anti-proliferative activity of pomalidomide (treatment of cells with 0.001-1.0 μM) combined with bortezomib (62.5 and 125.0 pM) or Compound A-S (treatment of cells with 0.1-10.0 nM) combined with bortezomib (62.5 and 125.0 pM) was measured by 3H-thymidine incorporation in MM1.S cells after 3 days of treatment in each condition. Combination indices (CI) were calculated using the Chou-Talalay Method for each combination. CI values below 1 indicated synergistic activity of combination.

Entries after “also recorded” stand apart in the source; their conditions may differ.

For `O=C1CC[C@H](N2Cc3c(OCc4ccc(CN5CCOCC5)cc4)cccc3C2=O)C(=O)N1` [Compound A-S, (S)-3-(4-((4-(morpholinomethyl)benzyl)oxy)-1-oxoisoindolin-2-yl)piperidine-2,6-dione], in the assay with KMS-12BM cells, the “apoptosis / cell killing in combination with bortezomib” value is reported as “induced cell killing; also recorded: apoptosis induced” and the “apoptosis / cell killing in combination with carfilzomib” value is recorded as “induced cell killing; also recorded: apoptosis induced”. The “anti-proliferative activity in combination with bortezomib (combination index, Chou-Talalay; CI below 1 = synergistic)” value with MM1.S cells is “synergistic”.

Regarding `Nc1cccc2c1C(=O)N(C1CCC(=O)NC1=O)C2=O` (stereo not drawn) [pomalidomide, reference compound], in the assay with KMS-12BM cells, the “apoptosis / cell killing in combination with bortezomib” value is recorded as “induced cell killing” and the “apoptosis / cell killing in combination with carfilzomib” value was “induced cell killing”. The “anti-proliferative activity in combination with bortezomib (combination index, Chou-Talalay; CI below 1 = synergistic)” value with MM1.S cells was “synergistic”.
